Data as given in article PMC9919591, “New Triazine Derivatives as Serotonin 5-HT6 Receptor Ligands” (Molecules, 2023).
Values joined by “and” are separate entries in the source; they are usually repeats but may differ in a detail not shown here. Identical values can stand only once. Like-named read-outs stand apart in the source and are kept apart here.

How the values were obtained:
[1] = PAMPA, study b; cited from earlier work
human 5-HT6R = target: T1, human 5-HT6R (Homo sapiens, UniProt P50406); assay: Radioligand binding assay, 5-HT6R ([3H]-LSD); conditions: [3H]-LSD; HEK293 cells stably expressing human 5-HT6R; average of at least two independent experiments
T1 construct: expressed in transfected cells; host or cells: HEK293
Method: The affinity of compounds (1–25) for 5-HT6R was evaluated in the radioligand binding assay in HEK293 cells stably expressing human 5-HT6R. [^3H]-LSD as a radioligand was used. […] All results are collected in Table 1, Table 2 and Table 3.
Radioligand binding assays were used to determine the affinity of the synthesized compounds for human serotonin 5-HT6R, 5-HT2AR, 5-HT7R and dopamine D2R, which were stably expressed in HEK293 cells or CHOk1 cells (5-HT2AR). This was done as described previously.

human 5-HT2AR = target: T2, human 5-HT2AR (Homo sapiens, UniProt P28223); assay: Radioligand binding assay, 5-HT2AR ([3H]-ketanserin); conditions: CHO-K1 cells stably expressing human 5-HT2AR
T2 construct: expressed in transfected cells; host or cells: CHO-K1
Method: (§1) Affinity for serotonin 5-HT2A, 5-HT7 and dopamine D2 receptors (D2R) as protein off-targets was evaluated in the radioligand binding assays. In CHO-K1 cells, it was stably expressed human 5-HT2AR, whereas human 5-HT7R and D2R were stably expressed in HEK293 cells. […] A particularly weak affinity towards this receptor was shown through compounds of series 1 (compounds 1–7) and series 2 (compounds 8–13). […]. Radioligand binding assays were used to determine the affinity of the synthesized compounds for human serotonin 5-HT6R, 5-HT2AR, 5-HT7R and dopamine D2R, which were stably expressed in HEK293 cells or CHOk1 cells (5-HT2AR). This was done as described previously.

human 5-HT7R = target: T3, human 5-HT7R (Homo sapiens, UniProt P34969); assay: Radioligand binding assay, 5-HT7R ([3H]-5-CT)
T3 construct: expressed in transfected cells; host or cells: HEK293
Method: as §1

human D2R = target: T4, human D2R (Homo sapiens, UniProt P14416); assay: Radioligand binding assay, D2R ([3H]-raclopride); conditions: HEK293 cells stably expressing human D2R
T4 construct: expressed in transfected cells; host or cells: HEK293
Method: as §1

[2] = PAMPA assay (BBB penetration, passive transport); assay type: in vitro ADME; conditions: study a
Excerpt: This test is a very popular method for assessing BBB penetration via passive transport.

HepG2 cells = assay: Hepatotoxicity, MTS assay on HepG2 cells; assay type: cell-based, human
Method: Some substances can lead to liver damage. To eliminate this risk, hepatotoxicity tests are carried out as early as the pre-clinical development phase. One of the methods commonly used to assess the adverse effect of tested compounds on cell viability is the MTT assay, and the most popular cell lines are HepG2 and HepaRG (the human hepatocellular carcinoma cells). To evaluate the toxic effect of compound 3, the MTS assay (one-step MTT assay variant) was performed on the HepG2 cells. HepG2 cells were incubated with increasing concentrations (0.78–50 µM) of compound 3 for 48 h. After that time, the MTS reagent was added and incubated for 1 h. Next the absorbance was read at 490 nm.
The hepatoma cell line HepG2 (ATCC® HB-8065TM) was used to assess the hepatotoxicity of the compounds according to previously described protocols. The CellTiter 96® AQueous Non-Radioactive Cell Proliferation Assay was purchased from Promega (Madison, WI, USA). Compound 3 was tested in two independent experiments in triplicate at seven concentrations (0.78, 1.56, 3.125, 6.25, 12.5, 25 and 50 µM) for […].

[3] = HEK293 cells stably expressing human 5-HT7R

T1 sequence (P50406 whole entry): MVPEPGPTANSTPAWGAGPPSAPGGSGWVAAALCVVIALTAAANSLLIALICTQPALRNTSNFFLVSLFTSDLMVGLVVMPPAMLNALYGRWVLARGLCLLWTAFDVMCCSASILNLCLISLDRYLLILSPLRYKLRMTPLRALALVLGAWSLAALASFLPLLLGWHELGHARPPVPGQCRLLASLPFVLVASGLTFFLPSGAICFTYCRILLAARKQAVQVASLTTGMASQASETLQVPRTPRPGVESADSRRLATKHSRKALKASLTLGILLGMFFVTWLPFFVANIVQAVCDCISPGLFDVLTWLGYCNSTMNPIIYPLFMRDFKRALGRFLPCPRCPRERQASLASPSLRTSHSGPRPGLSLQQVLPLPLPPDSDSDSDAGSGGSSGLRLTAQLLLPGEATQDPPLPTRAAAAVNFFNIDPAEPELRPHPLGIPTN
T3 sequence (P34969 whole entry): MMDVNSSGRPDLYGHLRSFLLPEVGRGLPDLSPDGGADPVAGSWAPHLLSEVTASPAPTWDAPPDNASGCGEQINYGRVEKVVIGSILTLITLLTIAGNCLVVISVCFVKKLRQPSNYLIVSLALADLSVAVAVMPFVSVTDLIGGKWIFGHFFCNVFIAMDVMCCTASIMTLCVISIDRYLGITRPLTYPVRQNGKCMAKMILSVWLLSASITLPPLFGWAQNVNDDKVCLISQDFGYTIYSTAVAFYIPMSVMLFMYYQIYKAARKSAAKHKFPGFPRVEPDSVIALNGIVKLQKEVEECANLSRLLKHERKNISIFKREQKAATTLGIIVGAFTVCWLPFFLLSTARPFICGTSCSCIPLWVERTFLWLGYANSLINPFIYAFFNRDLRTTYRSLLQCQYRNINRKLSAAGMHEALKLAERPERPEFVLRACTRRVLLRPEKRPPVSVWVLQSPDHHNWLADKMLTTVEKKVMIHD
T4 sequence (P14416 whole entry): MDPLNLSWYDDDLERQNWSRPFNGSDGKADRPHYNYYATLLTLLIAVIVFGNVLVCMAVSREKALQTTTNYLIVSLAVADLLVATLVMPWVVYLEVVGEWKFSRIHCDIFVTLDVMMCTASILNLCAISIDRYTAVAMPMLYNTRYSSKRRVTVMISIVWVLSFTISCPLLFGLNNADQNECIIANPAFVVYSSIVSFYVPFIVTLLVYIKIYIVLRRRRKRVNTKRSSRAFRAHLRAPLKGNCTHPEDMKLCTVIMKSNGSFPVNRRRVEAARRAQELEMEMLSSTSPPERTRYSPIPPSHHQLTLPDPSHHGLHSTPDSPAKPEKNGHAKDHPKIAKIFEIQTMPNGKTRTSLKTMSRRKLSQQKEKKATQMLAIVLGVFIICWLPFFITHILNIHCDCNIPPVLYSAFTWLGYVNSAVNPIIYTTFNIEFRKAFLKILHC
T2 sequence (P28223 whole entry): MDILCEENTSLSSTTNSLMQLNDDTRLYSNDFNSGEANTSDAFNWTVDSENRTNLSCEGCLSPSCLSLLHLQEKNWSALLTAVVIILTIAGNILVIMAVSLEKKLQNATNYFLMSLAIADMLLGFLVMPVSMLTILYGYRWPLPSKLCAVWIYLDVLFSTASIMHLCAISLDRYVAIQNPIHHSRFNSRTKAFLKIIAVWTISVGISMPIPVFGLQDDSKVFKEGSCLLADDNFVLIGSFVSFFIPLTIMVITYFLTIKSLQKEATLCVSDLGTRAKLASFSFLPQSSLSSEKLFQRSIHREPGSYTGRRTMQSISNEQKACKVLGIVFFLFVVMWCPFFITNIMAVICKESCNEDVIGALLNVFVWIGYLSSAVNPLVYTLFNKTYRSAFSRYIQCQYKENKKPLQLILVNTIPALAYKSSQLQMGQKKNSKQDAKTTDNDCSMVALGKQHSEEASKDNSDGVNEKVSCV

Cn1c(=O)c2c(ncn2C)n(C)c1=O [CFN, Caffeine]
Pe ± SD [1]: 15.1 ± 0.4 ×10^−6 cm/s

CN1CCN(c2nc(N)nc(COc3ccccc3C(C)(C)C)n2)CC1 [Compound 3, 4-((2-(tert-Butyl)phenoxy)metyl)-6-(4-methylpiperazin-1-yl)-1,3,5-triazin-2-amine]
Ki (human 5-HT6R): 13 nM
Ki (human 5-HT2AR): 2180 nM
Ki (human 5-HT7R; [3]): 6340 nM
Ki (human 5-HT7R; compound 3 and its salts): 6340 nM
Ki (human D2R): 1620 nM
Pe ± SD [2]: 4.7 ×10⁻⁶ cm/s
Papp ([2]; read-out: Pe ± SD): 4.7 ± 0.2 ×10⁻⁶ cm/s
hepatotoxicity (conclusion in words) (HepG2 cells; HepG2, MTS assay): moderate hepatotoxicity
IC50 (HepG2 cells; Homo sapiens, HepG2, MTS assay, 0.78–50 µM, 48 h incubation (72 h elsewhere in the source), read-out: IC50 (HepG2 cells' viability)): 46600 nM
melting point: 107 to 109 °C

CC(C)c1ccccc1OCCCCCc1nc(N)nc(N2CCN(C)CC2)n1 [Compound 23, 4-(5-(2-Isopropylphenoxy)pentyl)-6-(4-methylpiperazin-1-yl)-1,3,5-triazin-2-amine]
Ki (human 5-HT6R): 189 nM
Ki (human 5-HT2AR): 597 nM
Ki (human 5-HT7R; [3]): 3430 nM
Ki (human D2R): 196 nM
melting point: 63 to 65 °C

Cc1cccc(OCCCCCc2nc(N)nc(N3CCN(C)CC3)n2)c1 [Compound 24, 4-(4-Methylpiperazin-1-yl)-6-(5-(m-tolyloxy)pentyl) 1,3,5-triazin-2-amine]
Ki (human 5-HT6R): 644 nM
Ki (human 5-HT2AR): 854 nM
Ki (human 5-HT7R; [3]): 1890 nM
Ki (human D2R): 481 nM
melting point: 83 to 85 °C

Cc1ccc(C(C)C)c(OCCCCCCc2nc(N)nc(N3CCN(C)CC3)n2)c1 [Compound 25, 4-(6-(2-Isopropyl-5-methylphenoxy)hexyl)-6-(4-methylpiperazin-1-yl)-1,3,5-triazin-2-amine]
Ki (human 5-HT6R): 78 nM
Ki (human 5-HT2AR): 364 nM
Ki (human 5-HT7R; [3]): 1030 nM
Ki (human D2R): 149 nM
melting point: 59 °C (dec.)

Cc1ccc(C(C)C)c(OCc2nc(N)nc(N3CCN(C)CC3)n2)c1 [MST4, 4-((2-isopropyl-5-methylphenoxy)methyl)-6-(4-methylpiperazin-1-yl)-1,3,5-triazin-2-amine]
Pe ± SD [1]: 12.3 ×10^−6 cm/s and 12.3 ± 2.0 ×10^−6 cm/s
